#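 Compound exposure: 48 hours, 5 concentrations, 96-well plates. GI50 marks 50% less growth.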 Active and inactive are the calls of the source. No stated cut-off is given here; in the data, active = GI50 up to about 1.1 µM and inactive = higher.
# Experiments:
# Assay in all cases: DTP human tumour cell line panel, 48 h
# [1] = tested on: NCI-H23
# [2] = tested on: Malme-3M
# [3] = tested on: NCI-H226
# [4] = tested on: HOP-92
# [5] = tested on: RPMI-8226
# [6] = tested on: SNB-19
# [7] = tested on: A549
# [8] = tested on: NCI-H522
# [9] = tested on: HT-29
# [10] = tested on: SNB-75
# [11] = tested on: 786-0
# [12] = tested on: M14
# [13] = tested on: HOP-62
# [14] = tested on: LOX IMVI
# [15] = tested on: DMS-114
# [16] = tested on: DU-145
# [17] = tested on: Hs-578T
# [18] = tested on: MDA-N
# [19] = tested on: U-251
# [20] = tested on: MDA-MB-435
SMILES,GI50 [1],GI50 [2],GI50 [3],GI50 [4],GI50 [5],GI50 [6],GI50 [7],GI50 [8],GI50 [9],GI50 [10],GI50 [11],GI50 [12],GI50 [13],GI50 [14],GI50 [15],GI50 [16],GI50 [17],GI50 [18],GI50 [19],GI50 [20]
O=C(CC1(O)C(=O)Nc2ccccc21)c1cccc(O)c1 (stereo not given),> 100 µM (inactive),> 100 µM (inactive),> 100 µM (inactive),> 100 µM (inactive),> 100 µM (inactive),> 100 µM (inactive),> 100 µM (inactive),> 100 µM (inactive),> 100 µM (inactive),> 100 µM (inactive),> 100 µM (inactive),> 100 µM (inactive),> 100 µM (inactive),> 100 µM (inactive),> 100 µM (inactive),,,,,
CCOC(=O)N1CCc2cc(OC)c(OC)c3c2c1cc1cc(OC)c(OC)cc13,3.95 µM (inactive),3.5 µM (inactive),4.33 µM (inactive),3.8 µM (inactive),3.76 µM (inactive),10.9 µM (inactive),1.7 µM (inactive),0.618 µM (active),0.492 µM (active),1.37 µM (inactive),2.53 µM (inactive),4.29 µM (inactive),3.27 µM (inactive),2.28 µM (inactive),1.55 µM (inactive),3.59 µM (inactive),1.99 µM (inactive),0.127 µM (active),2.7 µM (inactive),0.393 µM (active)
N=C(N)NCCCS(=O)(=O)Nc1ccc(Nc2c3ccccc3nc3cc([N+](=O)[O-])ccc23)cc1,4.65 µM (inactive),10.1 µM (inactive),11.7 µM (inactive),4.9 µM (inactive),3.8 µM (inactive),2.9 µM (inactive),5.31 µM (inactive),7.06 µM (inactive),16.9 µM (inactive),13 µM (inactive),19.2 µM (inactive),16.4 µM (inactive),14.5 µM (inactive),16.4 µM (inactive),4.72 µM (inactive),9.33 µM (inactive),12.5 µM (inactive),21.3 µM (inactive),4.05 µM (inactive),> 100 µM (inactive)
CC(NC(=O)/C(C#N)=C/c1ccc2[nH]ccc2c1)c1ccccc1 (stereo not given),19.4 µM (inactive),28.2 µM (inactive),24.1 µM (inactive),14.5 µM (inactive),21.6 µM (inactive),19.6 µM (inactive),24 µM (inactive),12.8 µM (inactive),17.5 µM (inactive),31.4 µM (inactive),16.7 µM (inactive),20.6 µM (inactive),18.2 µM (inactive),16.4 µM (inactive),22.3 µM (inactive),16.7 µM (inactive),31.6 µM (inactive),16.2 µM (inactive),15.9 µM (inactive),13.9 µM (inactive)
CC1=[N+]([O-])c2ccccc2C(=O)C1=O,92.9 µM (inactive),> 100 µM (inactive),15.8 µM (inactive),69 µM (inactive),35.5 µM (inactive),93.8 µM (inactive),> 100 µM (inactive),23.3 µM (inactive),> 100 µM (inactive),> 100 µM (inactive),> 100 µM (inactive),> 100 µM (inactive),> 100 µM (inactive),41 µM (inactive),> 100 µM (inactive),,,,99.8 µM (inactive),
CCCCC/C=C1\CCC(CN2CCOCC2)C1=O (stereo not given),11.2 µM (inactive),9.62 µM (inactive),16.9 µM (inactive),15.7 µM (inactive),0.449 µM (active),16.8 µM (inactive),20.7 µM (inactive),2.43 µM (inactive),10.9 µM (inactive),14.8 µM (inactive),2.58 µM (inactive),6.7 µM (inactive),23.1 µM (inactive),4.84 µM (inactive),13.6 µM (inactive),14.6 µM (inactive),4.25 µM (inactive),8.24 µM (inactive),10.8 µM (inactive),5.25 µM (inactive)
COC(COC(N)=O)C1=C(N2CC2)C(=O)C(C)=C(N2CC2)C1=O (stereo not given) [CARBOQUONE],< 0.0148 µM (active),0.0692 µM (active),0.0719 µM (active),0.219 µM (active),0.117 µM (active),0.0646 µM (active),0.0185 µM (active),0.0377 µM (active),0.0342 µM (active),0.0246 µM (active),0.0201 µM (active),0.0395 µM (active),< 0.0154 µM (active),< 0.0144 µM (active),0.063 µM (active),< 0.01 µM (active),0.218 µM (active),0.108 µM (active),0.0366 µM (active),0.0359 µM (active)
Cc1ccc(Sc2ccccc2N)cc1,26.7 µM (inactive),46.5 µM (inactive),17.5 µM (inactive),22.7 µM (inactive),19.3 µM (inactive),38.6 µM (inactive),39.3 µM (inactive),14.8 µM (inactive),31.1 µM (inactive),44.8 µM (inactive),29.2 µM (inactive),32.7 µM (inactive),6.53 µM (inactive),36.8 µM (inactive),43.4 µM (inactive),,,,67.3 µM (inactive),
CN(Cc1ccccc1)C(=O)c1ccccc1C(=O)O,> 100 µM (inactive),> 100 µM (inactive),> 100 µM (inactive),> 100 µM (inactive),> 100 µM (inactive),> 100 µM (inactive),> 100 µM (inactive),> 100 µM (inactive),> 100 µM (inactive),> 100 µM (inactive),> 100 µM (inactive),> 100 µM (inactive),,> 100 µM (inactive),> 100 µM (inactive),,,,> 100 µM (inactive),
C[C@H]1C=C2C(=O)O[C@H]3CC[C@@H](C1)[C@@]23O,2.8 µM (inactive),7.03 µM (inactive),12.5 µM (inactive),5.25 µM (inactive),29.6 µM (inactive),16.3 µM (inactive),11.2 µM (inactive),2.51 µM (inactive),3.97 µM (inactive),5.87 µM (inactive),3.28 µM (inactive),3.83 µM (inactive),> 10 µM (inactive),2.55 µM (inactive),2.62 µM (inactive),,,,6.44 µM (inactive),
O=C1CN(C(=O)c2ccccc2)Cc2[nH]c3ccccc3c21,> 100 µM (inactive),> 100 µM (inactive),> 100 µM (inactive),> 100 µM (inactive),> 100 µM (inactive),> 100 µM (inactive),> 100 µM (inactive),> 100 µM (inactive),> 100 µM (inactive),> 100 µM (inactive),> 100 µM (inactive),> 100 µM (inactive),> 100 µM (inactive),> 100 µM (inactive),> 100 µM (inactive),,,,> 100 µM (inactive),
Nc1nc(N)c(CCCCc2ccccc2)c(N)n1,> 100 µM (inactive),> 100 µM (inactive),> 100 µM (inactive),> 100 µM (inactive),> 100 µM (inactive),> 100 µM (inactive),> 100 µM (inactive),> 100 µM (inactive),> 100 µM (inactive),60.7 µM (inactive),> 100 µM (inactive),> 100 µM (inactive),> 100 µM (inactive),> 100 µM (inactive),> 100 µM (inactive),> 100 µM (inactive),> 100 µM (inactive),> 100 µM (inactive),> 100 µM (inactive),> 100 µM (inactive)
COc1cc(C(=O)N[C@H]2CCc3cc(OC)c(OC)c(OC)c3-c3ccc(SC)c(=O)cc32)cc(OC)c1OC,0.00589 µM (active),0.02 µM (active),< 0.01 µM (active),0.06 µM (active),0.0115 µM (active),0.00871 µM (active),0.0813 µM (active),0.00428 µM (active),0.00641 µM (active),0.252 µM (active),0.0223 µM (active),0.00832 µM (active),0.0121 µM (active),0.00603 µM (active),0.00775 µM (active),,,,0.0116 µM (active),

# From ChEMBL document CHEMBL1201862, “PubChem BioAssay data set” (2004)
